Entries after “also recorded” stand apart in the source; their conditions may differ. One block for each compound: values may come before it.
Tests used:
cellular differentiation = conditions: background, 19-nor-analogs; cited from earlier work
[1] = background, 19-nor-analogs; cited from earlier work
[2] = 2MD study: body weight of NOD mice; conditions: for Weights: mean, n = 12, in g (unit assumed)
Description: Diet. […] At eight weeks of age, mice were then provided 1 of 4 experimental diets: diet 11 only or diet 11+50 ng 1,25(OH)2D3, diet 11 plus 400 ng 2 MP or diet 11+500 pg 2MD. All purified diets were supplemented with vegetable oil containing fat soluble vitamins A, E, D and K (Suda et al., 1970, J. Nutr. 100: 1049-1052 [diet 11]). In diets containing 1,25(OH)2D3, 2 MP or 2MD, the compounds were added to 1% Wesson® oil and mixed into the purified diet. Diets were fed in agar form (Hayes et al., 1987, J. Nutr. 117:857-865) at 3.5 g food/mouse/day and were replaced three times per week.
Evaluation of Diabetic Status. All experimental mice were weighed weekly and urinalysis was performed weekly starting at 10 weeks of age—Diastix® (Bayer, Elkhart, Ind.) were used to determine glucose levels. If a Diastix® reading was above 1000 mg/dl, the mice were bled from maxillary cheek following a four-hour fast. Whole blood was centrifuged to obtain serum. Concentration of glucose in serum was measured using a enzymatic-colorimetric assay (Glucose Liquicolor®, Stanbio Laboratory, Boerne, Tex.) followed by spectrophotometric analysis. Animals that had two fasting glucose analysis above 300 mg/dl were diagnosed as diabetic and sacrificed via CO2 asphyxiation.

[3] = 2MD study: serum calcium analysis (atomic absorption); conditions: for serum calcium: NOD mice; for Serum Calcium Levels: mean, n = 12, in mg/dL (unit assumed)
Description: Diet. […] Female pups were weaned at three weeks and placed immediately on a purified diet (Suda et al., 1974, J. Nutr. 100: 1049-1052). At eight weeks of age, mice were then provided 1 of 4 experimental diets: diet 11 only or diet 11+50 ng 1,25(OH)2D3, diet 11 plus 400 ng 2 MP or diet 11+500 pg 2MD. All purified diets were supplemented with vegetable oil containing fat soluble vitamins A, E, D and K (Suda et al., 1970, J. Nutr. 100: 1049-1052 [diet 11]). In diets containing 1,25(OH)2D3, 2 MP or 2MD, the compounds were added to 1% Wesson® oil and mixed into the purified diet. Diets were fed in agar form (Hayes et al., 1987, J. Nutr. 117:857-865) at 3.5 g food/mouse/day and were replaced three times per week.
Serum Calcium Analysis. Blood was collected from maxillary cheek of each mouse at 6, 8, 9, 14.3, 15.3 and 28.6 weeks of age. Serum was separated by centrifugation and diluted 1:40 in a 0.1% LaCl2 solution. Calcium concentration was determined by atomic absorption spectrometry (Spectrometer 3110®, Perkin Elmer, Norwalk, Conn.).

NOD mice [4] = assay: 2MD Type 1 Diabetes Prevention Study: diabetes incidence in NOD mice; type: in vivo, mouse; conditions: for Incidence of Type 1 Diabetes: female NOD mice
Description: (§1) Evaluation of Diabetic Status. […] Whole blood was centrifuged to obtain serum.

NOD mice [5] = assay: 2AMD Type 1 Diabetes Prevention Study: diabetes incidence in NOD mice; type: in vivo, mouse; conditions: female NOD mice
Description: Diet. Breeding pairs were fed LabDiet™ Mouse Diet 5010 ad libitum (PMI Nutrition International, St. Louis, Mo.). Experimental mice were fed LabDiet™ Mouse Diet 5K52 meal form (PMI Nutrition International, St. Louis, Mo.). […] At eight weeks of age, mice were placed on 1 of 4 experimental diets: 1) chow, 2) 5010+50 ng 1,25(OH)2D3, or 3) 5010+200 pg and 4) 5010+300 pg 2AMD. In diets/treatments containing 1,25(OH)2D3 or 2AMD, the hormone was added to 1% Wesson® oil and mixed into the diet.
as §1

[6] = 2AMD study: serum calcium analysis (atomic absorption); type: in vivo, mouse; conditions: 200 pg and 300 pg 2AMD per day in diet; NOD mice; over 30 weeks (FIG. 2)
Description: Diet. Breeding pairs were fed LabDiet™ Mouse Diet 5010 ad libitum (PMI Nutrition International, St. Louis, Mo.). Experimental mice were fed LabDiet™ Mouse Diet 5K52 meal form (PMI Nutrition International, St. Louis, Mo.). […] Serum Calcium Analysis. Blood was collected from maxillary cheek of each mouse weekly from 8 weeks to 200 days of age.

[7] = 2AMD study: body weight of NOD mice; type: in vivo, mouse; conditions: 200 pg and 300 pg 2AMD per day in diet, over 200 days (FIG. 3)
Description: Diet. Breeding pairs were fed LabDiet™ Mouse Diet 5010 ad libitum (PMI Nutrition International, St. Louis, Mo.). Experimental mice were fed LabDiet™ Mouse Diet 5K52 meal form (PMI Nutrition International, St. Louis, Mo.). […] Evaluation of Diabetic Status. […] Whole blood was centrifuged to obtain serum.

NOD mouse = conditions: of 1,25-(OH)2D3, Zella et al., 2003; cited from earlier work
[8] = Group 10, 400 ng 2MP, age 6 weeks
[9] = Group 10, 400 ng 2MP, age 8 weeks
[10] = Group 10, 400 ng 2MP, age 9 weeks
[11] = Group 10, 400 ng 2MP, age 14.3 weeks
[12] = Group 10, 400 ng 2MP, age 15.3 weeks
[13] = Group 10, 400 ng 2MP, age 28.6 weeks
[14] = Group 8, 0.5 ng 2MD, age 6 weeks
[15] = Group 8, 0.5 ng 2MD, age 8 weeks
[16] = Group 8, 0.5 ng 2MD, age 9 weeks
[17] = Group 8, 0.5 ng 2MD, age 14.3 weeks
[18] = Group 8, 0.5 ng 2MD, age 15.3 weeks
[19] = Group 8, 0.5 ng 2MD, age 28.6 weeks

Compound: C[C@H](CCCC(C)(C)O)[C@H]1CC[C@H]2/C(=C/C=C3C[C@@H](O)C[C@H](O)C3)CCC[C@]12C [1α,25-dihydroxy-19-nor-vitamin D3]
potency for inducing cellular differentiation (cellular differentiation): high potency
calcium mobilizing activity [1]: very low calcium mobilizing activity

serum calcium ([3]; 400 ng 2 MP per day in diet 11): moderate elevation of calcium
Serum Calcium Levels [3, 8]: 11.57
Serum Calcium Levels [3, 9]: 11.57
Serum Calcium Levels [3, 10]: 11.55
Serum Calcium Levels [3, 11]: 11.62
Serum Calcium Levels [3, 12]: 11.77
Serum Calcium Levels [3, 13]: 11.66
Compound: C=C1C(O)CC(=CC=C2CCCC3(C)C2CCC3C(C)C)CC1O (stereo not drawn) [2MP, 1α-hydroxy-2-methylene-19-nor-homopregnacalciferol, reference compound]
Weights ([2]; Group 10, 400 ng 2MP, age 3 weeks): 13.60
Weights [2, 8]: 22.03
Weights [2, 9]: 23.74
Weights [2, 10]: 24.63
Weights [2, 11]: 26.30
Weights [2, 12]: 26.81
Weights [2, 13]: 27.64
protection against diabetes (NOD mice [4]; 400 ng 2 MP per day in diet 11, NOD mice): no protection against diabetes
Incidence of Type 1 Diabetes (NOD mice [4]; 400 ng per day in diet 11, 200 days, n = 12): 33.0%

Serum Calcium Levels [3, 14]: 11.42
Serum Calcium Levels [3, 15]: 11.45
Serum Calcium Levels [3, 16]: 11.55
Serum Calcium Levels [3, 17]: 11.52
Serum Calcium Levels [3, 18]: 11.33
Serum Calcium Levels [3, 19]: 11.37
Compound: C=C1[C@H](O)CC(=C/C=C2\CCC[C@@]3(C)C2CCC3[C@@H](C)CCCC(C)(C)O)C[C@H]1O (stereo partly drawn) [2MD, 2-methylene-19-nor-20(S)-1,25-dihydroxyvitamin D3]
body weight (FIG. 5) ([2]; 0.5 ng 2MD per day in diet 11, NOD mice, over 200 days): no statistically significant change in body weight
Weights ([2]; Group 8, 0.5 ng 2MD, age 3 weeks): 13.33
Weights [2, 14]: 21.87
Weights [2, 15]: 23.78
Weights [2, 16]: 24.94
Weights [2, 17]: 27.85
Weights [2, 18]: 27.82
Weights [2, 19]: 29.51
serum calcium ([3]; 0.5 ng 2MD per day in diet 11, over 30 weeks (FIG. 6)): no statistically significant increase in serum calcium; also recorded: moderate elevation of calcium
Incidence of Type 1 Diabetes (NOD mice [4]; 0.5 ng per day in diet 11, 200 days, n = 12): 0.0%
prevention of diabetes / diabetes incidence (FIG. 4) (NOD mice [4]; 0.5 ng/day 2MD in diet 11, NOD mice, 200 days): statistically significant reduced incidence of diabetes; also recorded: prevented diabetes

Compound: 2α-methyl-19-nor-20(S)-1α,25-dihydroxyvitamin D3 [2AMD]
diabetes incidence at 200 days (FIG. 1) (NOD mice [5]; 200 pg and 300 pg 2AMD daily in diet, versus no treatment): statistically significant reduced incidence of diabetes
Type 1 diabetes disease incidence (NOD mice [5]; 200 pg and 300 pg 2AMD per day in 5010 diet, from 8 weeks to 200 days of age): 8%
serum calcium / hypercalcemia [6]: no statistically significant increase in serum calcium; also recorded: without hypercalcemia
body weight [7]: no statistically significant change in body weight; also recorded: not altered

Compound: C=C1/C(=C\C=C2/CCC[C@]3(C)[C@@H]([C@H](C)CCCC(C)(C)O)CC[C@@H]23)C[C@@H](O)C[C@@H]1O [1,25(OH)2D3, 1α,25-dihydroxy-vitamin D3]
prevention of Type 1 diabetes (NOD mouse): completely prevent Type 1 diabetes
protection against T1DM (NOD mice [5]; 50 ng 1,25(OH)2D3 per day in 5010 diet): completely protected
Incidence of Type 1 Diabetes (NOD mice [4]; 50 ng per day in diet 11, 200 days, n = 24): 4.2%
prevention of diabetes (NOD mice [4]; 50 ng/day 1,25(OH)2D3 in diet 11, NOD mice): prevented diabetes

Source: patent US20110124609A1, “Method of Preventing Type I Diabetes” (Wisconsin Alumni Research Foundation, priority 2009, published 2011)
